Laboratory results published in patent US20250222128A1, “ANTIBODY DRUG-CONJUGATES TARGETING C-MET AND METHODS OF USE THEREOF” (Zymeworks BC Inc., priority 2022, published 2025).
Like-named read-outs stand apart in the source and are kept apart here.

Columns and labels:
[1] = tested on: EBC-1 (lung squamous cell carcinoma); experiment: In vitro cytotoxicity (cell growth inhibition, CellTiter-Glo); type: cell-based
Description: (§1) The cell growth inhibition (cytotoxicity) capabilities of anti-cMet ADCs comprising variant v17427 (HetFc, unmodified hinge) conjugated to Drug-Linker 001 or MCvcPABC-MMAE by stochastic cysteine conjugation at an average DAR 4 were determined in a panel of four cMet-expressing cell lines as described below. The cell lines were EBC-1 (lung squamous cell carcinoma), H292 (lung carcinoma), BT-20 (breast cancer) and SW48 (colorectal cancer).
(§2) Briefly, cells were seeded in 384-well plates at 1,000-1,500 cells/well density and treated with a titration of test article, generated in complete cell growth medium. Treated cells were incubated for 4-5 days under standard culturing conditions (37° C./5% CO2). After incubation, CellTiter-Glo® reagent (Promega Corporation, Madison, WI; Cat. No. G7570) was spiked into each well and luminescence corresponding to ATP present in each well was measured using a Synergy™ H1 microplate (BioTek Instruments, Winooski, VT). Based on blank wells (no test article added, only blank media), % cytotoxicity values were calculated using ATP measurement RLU values (Relative Light Units) and plotted against test article concentration using GraphPad Prism 8 software (GraphPad Software, San Diego, CA).
(§3) Cytotoxicity was determined as described in Example 6 with treated cells (1,000 cells/well) being incubated for 4 days under standard culturing conditions (37° C./5% CO2).
(§4) The cell growth inhibition capabilities of ADCs comprising anti-cMet antibodies with either a HomoFc or HetFc backbone (v32634 and v17427, respectively) conjugated to Drug-Linker 002 by stochastic lysine conjugation at approximately DAR 4 and DAR 6 were assessed in a panel of four cMet-expressing tumour cell lines and one cMet-negative cell line. The anti-RSV antibody, palivizumab (v22277), conjugated to Drug-Linker 002 at DAR 3.7, and free payload (Compound 1), were used as controls. Cytotoxicity was determined as described in Example 8. Cell lines were SNU-5 (gastric carcinoma), EBC-1 (lung squamous cell carcinoma), H1975 (non-small cell lung cancer), H292 (lung carcinoma) and cMet-negative T-47D (breast cancer).
(§5) The cell growth inhibition capabilities of site-specific cysteine-conjugated ADCs comprising various cysteine insertion antibody variants conjugated to Drug-Linker 001 at approximately DAR 1, 2 or 3, were assessed in a panel of four cMet-expressing tumour cell lines, SNU-5 (gastric carcinoma), EBC-1 (lung squamous cell carcinoma), H292 (lung carcinoma) and H1975 (non-small cell lung cancer), and one cMet-negative cell line, T-47D (breast carcinoma). An ADC comprising the anti-RSV antibody palivizumab (v22277) conjugated to Drug-Linker 001 at approximately DAR 4 was used as a non-targeted control. […] Cytotoxicity was determined as described in Example 7.
(§6) The cell growth inhibition capabilities of ADCs comprising variant v29001, having two cysteine insertions, conjugated to multivalent Drug-Linker 003 or multivalent Drug-Linker 004, were assessed in a panel of cMet-expressing tumour cell lines together with ADCs comprising parental variant v17427 conjugated to the monovalent Drug-Linker 002 at DAR 4 or DAR 6. Cell lines used were SNU-5 (gastric carcinoma), EBC-1 (lung squamous cell carcinoma), H292 (lung carcinoma), H1975 (non-small cell lung cancer) and T-47D (breast carcinoma, cMet-negative). ADCs comprising the anti-RSV antibody palivizumab (v22277) conjugated to Drug-Linker 002 were used as non-targeted controls. Free payload Compound 1 was also included as a control. Cytotoxicity was determined as described in Example 8.

H292 (lung carcinoma) = experiment: as above; type: cell-based
Description: as §1, §2, §3, §4, §5, §6

BT-20 (breast cancer) = experiment: as above; type: cell-based
Description: as §1
as §2, with “CA). […]” for “CA).”
as §3

[2] = tested on: H1975 (non-small cell lung cancer); experiment: as above; type: cell-based
Description: as §2
(§7) The cell growth inhibition capabilities of anti-cMet ADCs comprising variant v17427 (HetFc, unmodified hinge) conjugated to Drug-Linker 002 by stochastic lysine conjugation at DARs ranging from DAR 2 to DAR 6 were determined in a panel of seven cMet-expressing cell lines. Variant v17427 conjugated to MCvcPABC-MMAE drug linker at DAR 4, and anti-RSV antibody, palivizumab (v22277), conjugated to Drug-Linker 002 or MCvcPABC-MMAE at DAR 4, were used as controls. Cell lines were SNU-5 (gastric carcinoma), EBC-1 (lung squamous cell carcinoma), HCC827 (lung cancer), H1975 (non-small cell lung cancer), HCT-116 (colorectal cancer), H292 (lung carcinoma) and BT-20 (breast cancer).
as §3, §4, §6

[3] = tested on: SNU-5 (gastric carcinoma); experiment: as above; type: cell-based; settings: 4 days
Description: as §2, §7, §3, §4, §6

SW48 (colorectal cancer) = experiment: as above; type: cell-based; settings: Homo sapiens, 4-5 days, Table 6.1, read-out: EC50 (nM) - DAR corrected
Description: as §1, §2

[4] = tested on: cMet-negative T-47D (breast cancer); experiment: as above; type: cell-based; settings: Homo sapiens, T47D, 96 h
Description: as §2, §3
The cell growth inhibition capabilities of ADCs comprising anti-cMet antibodies with either a HomoFc or HetFc backbone (v32634 and v17427, respectively) conjugated to Drug-Linker 002 by stochastic lysine conjugation at approximately DAR 4 and DAR 6 were assessed in a panel of four cMet-expressing tumour cell lines and one cMet-negative cell line. […] Cytotoxicity was determined as described in Example 8. […]

HCC827 (lung cancer) = experiment: as above; type: cell-based; settings: 4 days, Table 8.1
Description: as §2
(§8) The cell growth inhibition capabilities of anti-cMet ADCs comprising variant v17427 (HetFc, unmodified hinge) conjugated to Drug-Linker 002 by stochastic lysine conjugation at DARs ranging from DAR 2 to DAR 6 were determined in a panel of seven cMet-expressing cell lines. […]
as §3

[5] = tested on: HCT-116 (colorectal cancer); experiment: as above; type: cell-based; settings: 4 days, Table 8.1
Description: as §2, §8, §3

[6] = tested on: cMet-positive non-small cell lung carcinoma (NSCLC); settings: Phase II trials; cited from earlier work
HT-29 = experiment: Receptor-mediated internalization, high content imaging; type: cell-based; settings: 5 Hours 37° C.
EBC-1 = experiment: as above; type: cell-based; settings: 5 Hours 37° C.
[7] = molecular target: T1, cMet on H292 endogenous cMet-expressing cell line (Homo sapiens, UniProt P08581); experiment: Cellular equilibrium binding by flow cytometry
T1 construct: SNU-5 and H292 endogenous cMet-expressing cell lines; endogenous in cells; host or cells: H292
Description: (§9) The on-cell binding capabilities of ADCs comprising anti-cMet antibodies with either a HomoFc or HetFc backbone (v32634 and v17427, respectively) conjugated to Drug-Linker 002 by stochastic lysine conjugation at approximately DAR 4 and DAR 6 were assessed for cMet binding using SNU-5 and H292 endogenous cMet-expressing cell lines by flow cytometry as described below. Unconjugated anti-RSV antibody palivizumab (v22277) was used as a control.
(§10) Briefly, cells were seeded at 50,000 cells/well in V-bottom 96-well plates and treated with antibody for 24 hours at 4° C. to prevent internalization. Following incubation, cells were washed and stained with anti-human IgG Fc AF647 conjugate (Jackson ImmunoResearch Laboratories, Inc., West Grove, PA; Cat. No. 109-605-098) at 4° C. for 30 min. Following incubation and washing, fluorescence was detected by flow cytometry on a BD LSRFortessa™ Cell Analyzer (BD Biosciences, Franklin Lake, NJ) with 1,000 minimum events collected per well. AF647/APC-A GeoMean (fluorescence signal geometric mean, proportional to anti-Human AF647 binding) in live cell population was plotted using GraphPad Prism Version 8 (GraphPad Software, San Diego, CA).
(§11) The on-cell binding capabilities of the following unconjugated antibodies and ADCs were assessed on SNU-5 and H292 endogenous cMet-expressing cell lines by flow cytometry: unconjugated variant v17427 (HetFc, unmodified hinge), and cysteine insertion variant v29001 (two cysteine insertions), lysine conjugated ADCs comprising variant v17427 and Drug-Linker 002 at DAR 4 or DAR 6, and cysteine conjugated ADCs comprising cysteine insertion variant insertion v29001 conjugated to Drug-Linker 001, Drug-Linker 003 or Drug-Linker 004 at DAR 2, 4 or 6, respectively. […] Cellular binding was determined as described in Example 10.

[8] = molecular target: T2, cMet on SNU-5 endogenous cMet-expressing cell line (Homo sapiens, UniProt P08581); experiment: Cellular equilibrium binding by flow cytometry
T2 construct: SNU-5 and H292 endogenous cMet-expressing cell lines; endogenous in cells; host or cells: SNU-5
Description: as §9, §10, §11

[9] = 24 hours at 4° C., Table 10.1, read-out: Apparent Kd
[10] = Table 13.1, read-out: Apparent Kd

T1 sequence (P08581 25-1390): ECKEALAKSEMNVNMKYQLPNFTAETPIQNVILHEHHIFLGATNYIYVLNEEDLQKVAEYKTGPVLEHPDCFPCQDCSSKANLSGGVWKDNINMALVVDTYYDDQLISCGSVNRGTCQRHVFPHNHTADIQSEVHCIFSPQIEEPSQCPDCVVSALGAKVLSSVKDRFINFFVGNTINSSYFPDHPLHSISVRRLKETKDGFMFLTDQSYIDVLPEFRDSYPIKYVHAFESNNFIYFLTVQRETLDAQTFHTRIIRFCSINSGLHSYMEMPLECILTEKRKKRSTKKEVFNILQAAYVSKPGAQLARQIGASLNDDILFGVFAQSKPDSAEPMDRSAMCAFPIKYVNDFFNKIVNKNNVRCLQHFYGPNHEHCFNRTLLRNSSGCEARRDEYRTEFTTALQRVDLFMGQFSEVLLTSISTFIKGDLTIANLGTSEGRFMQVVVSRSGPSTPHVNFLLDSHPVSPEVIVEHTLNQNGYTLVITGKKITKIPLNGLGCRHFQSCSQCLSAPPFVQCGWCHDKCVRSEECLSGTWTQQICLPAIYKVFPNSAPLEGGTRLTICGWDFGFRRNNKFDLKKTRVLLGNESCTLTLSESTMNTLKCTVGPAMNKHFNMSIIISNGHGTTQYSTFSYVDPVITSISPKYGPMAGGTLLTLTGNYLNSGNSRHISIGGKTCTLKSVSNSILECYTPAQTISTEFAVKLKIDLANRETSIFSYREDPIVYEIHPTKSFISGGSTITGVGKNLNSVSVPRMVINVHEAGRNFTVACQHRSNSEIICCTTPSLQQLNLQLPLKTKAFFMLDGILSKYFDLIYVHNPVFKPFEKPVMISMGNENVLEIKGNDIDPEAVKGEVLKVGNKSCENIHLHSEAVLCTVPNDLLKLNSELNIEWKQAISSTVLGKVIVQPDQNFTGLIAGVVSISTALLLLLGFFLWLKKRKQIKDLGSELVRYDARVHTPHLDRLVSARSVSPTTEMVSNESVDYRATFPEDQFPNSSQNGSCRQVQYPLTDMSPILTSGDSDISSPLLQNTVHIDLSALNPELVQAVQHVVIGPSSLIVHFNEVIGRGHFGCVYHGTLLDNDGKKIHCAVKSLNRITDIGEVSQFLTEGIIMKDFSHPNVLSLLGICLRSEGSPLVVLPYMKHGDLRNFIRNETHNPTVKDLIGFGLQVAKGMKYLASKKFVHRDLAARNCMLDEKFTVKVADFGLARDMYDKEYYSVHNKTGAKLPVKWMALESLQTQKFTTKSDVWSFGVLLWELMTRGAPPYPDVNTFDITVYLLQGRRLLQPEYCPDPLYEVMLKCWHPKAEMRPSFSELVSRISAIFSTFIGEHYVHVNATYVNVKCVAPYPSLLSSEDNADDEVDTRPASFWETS
T2 sequence (P08581 25-1390): as above

CC[C@H](C)[C@@H]([C@@H](CC(=O)N1CCC[C@H]1[C@H](OC)[C@@H](C)C(=O)NS(=O)(=O)c1ccc(N)cc1)OC)N(C)C(=O)[C@@H](NC(=O)[C@H](C(C)C)N(C)C)C(C)C [Compound 1, (S)-N-((3R,4S,5S)-1-((S)-2-((1R,2R)-3-((4-aminophenyl)sulfonamido)-1-methoxy-2-methyl-3-oxopropyl)pyrrolidin-1-yl)-3-methoxy-5-methyl-1-oxoheptan-4-yl)-2-((S)-2-(dimethylamino)-3-methylbutanamido)-N,3-dimethylbutanamide]
EC50 ([1]; Homo sapiens, EBC-1, 96 h): 26.3 nM | EC50 ([1]; Homo sapiens, EBC-1, read-out: EC50 (nM) - DAR corrected): 44.4 nM | EC50 (H292 (lung carcinoma); Homo sapiens, NCI-H292, 96 h, H292, 4 days, Table 9.1): 7.42 nM | EC50 (H292 (lung carcinoma); Homo sapiens, NCI-H292, 96 h, H292, 4 days, Table 12.1): 7.42 nM | EC50 (H292 (lung carcinoma); Homo sapiens, NCI-H292, read-out: EC50 (nM) - DAR corrected, H292, 4-5 days, Table 6.1): 22.2 nM | EC50 (BT-20 (breast cancer); Homo sapiens, BT-20, read-out: EC50 (nM) - DAR corrected): 39.2 nM | EC50 ([2]; Homo sapiens, NCI-H1975, 96 h): 22.7 nM | EC50 ([3]; Homo sapiens, SNU-5, 96 h, Table 9.1): 40 nM | EC50 ([3]; Homo sapiens, SNU-5, 96 h, Table 12.1): 40.1 nM | EC50 (SW48 (colorectal cancer)): 43.6 nM | EC50 [4]: 44.8 nM

V22277-MCvcPABC-MMAE DAR 4.0: palivizumab (v22277) conjugated to MCvcPABC-MMAE at DAR 4, control [reference compound]
EC50 (HCC827 (lung cancer)): > 10 nM | EC50 [5]: > 10 nM | EC50 ([1]; EBC-1, 4 days, Table 8.1, read-out: EC50): > 10 nM | EC50 (H292 (lung carcinoma); H292, 4 days, Table 8.1, read-out: EC50): > 10 nM | EC50 (BT-20 (breast cancer); BT-20, 4 days, Table 8.1, read-out: EC50): > 10 nM | EC50 ([2]; H1975, 4 days, Table 8.1, read-out: EC50): > 10 nM | EC50 ([3]; Table 8.1, read-out: EC50): > 10 nM

telisotuzumab vedotin
anti-tumour activity [6]: anti-tumour activity

v22277: anti-RSV antibody, palivizumab, non-targeted control [reference compound]
Mean Object Fluorescence (Internalized) (HT-29; 0.3 nM): 2,746 | Mean Object Fluorescence (Internalized) (HT-29; 1.9 nM): 2,363 | Mean Object Fluorescence (Internalized) (HT-29; 12 nM): 2,331 | Mean Object Fluorescence (Internalized) (HT-29; 70 nM): 2,290 | Mean Object Fluorescence (Internalized) (EBC-1; 0.3 nM): 2,686 | Mean Object Fluorescence (Internalized) (EBC-1; 1.9 nM): 3,054 | Mean Object Fluorescence (Internalized) (EBC-1; 12 nM): 1,989 | Mean Object Fluorescence (Internalized) (EBC-1; 70 nM): 2,605 | Kd [7, 9]: > 50 nM | Kd [7, 10]: > 50 nM | Kd [8, 9]: > 50 nM | Kd [8, 10]: > 50 nM
